From patent US9957569B2, “Recurrent gene fusions in prostate cancer” (THE REGENTS OF THE UNIVERSITY OF MICHIGAN, priority 2005, dated 2018)

Assays:
[1] = system: LNCaP prostate cancer cell line; test: Androgen stimulation time course of LNCaP cells, Q-PCR of FLJ35294, CANT1 and DDX5 transcripts; format: cell-based, human
Method: Q-PCR was carried out according to standard protocols.
Samples were normalized by the mRNA level of the housekeeping gene GAPDH. Androgen stimulation reactions were performed in triplicate, and all other reactions were performed in duplicate. RNA Ligase Mediated Rapid Amplification of cDNA Ends (RLM-RACE)

[2] = system: VCaP and LNCaP prostate cancer cell lines; test: QPCR of PSA and ETV1 in VCaP and LNCaP cells treated with R1881; format: cell-based, human
[3] = system: ERG; test: In vitro androgen responsiveness: ERG expression by QPCR after R1881; format: cell-based, human; conditions: 1 nM R1881, 24 h; for increase in expression of ERG compared to untreated controls: QPCR ERG/GAPDH; for expression of ERG after R1881 treatment compared to untreated controls: QPCR
Method: Quantitative PCR (QPCR) was performed using SYBR Green dye on an Applied Biosystems 7300 Real Time PCR system essentially as described (Chinnaiyan et al., Cancer Res 65, 3328 (2005); Rubin et al., Cancer Res 64, 3814 (2004)). Briefly, 1-5 μg of total RNA was reverse transcribed into cDNA using SuperScript III (Invitrogen) in the presence of random primers or random primers and oligo dT primers. All reactions were performed with SYBR Green Master Mix (Applied Biosystems) and 25 ng of both the forward and reverse primer using the manufacturer's recommended thermocycling conditions. All reactions were subjected to melt curve analysis and products from selected experiments were resolved by electrophoreses on 1.5% agarose gels. For each experiment, threshold levels were set during the exponential phase of the QPCR reaction using Sequence Detection Software version 1.2.2 (Applied Biosystems). The amount of each target gene relative to the housekeeping gene glyceraldehyde-3-phosphate dehydrogenase (GAPDH) for each sample was determined using the comparative threshold cycle (Ct) method (Applied Biosystems User Bulletin #2), with the cDNA sample serving as the calibrator for each experiment described in the figure legend. All oligonucleotide primers were synthesized by Integrated DNA Technologies. GAPDH primers were as described (Vandesompele et al., Genome Biol 3, RESEARCH0034 (2002)) and all other primers are listed (Table 4).
RWPE, LNCaP, VCap DuCaP, PC3 and PC3 cells stably transfected with the human androgen receptor (PC3+AR) (3) were treated for 24 h with 1% ethanol control or 1 nM of the synthetic androgen R1881. Total RNA was isolated and subjected to reverse transcription and QPCR as described above with ERG exon 5-6_f and _r primers. The relative amount of ERG/GAPDH for each sample was calibrated to the RWPE control sample.

[4] = system: ERG; test: Androgen regulation of Erg expression in LNCap and VCaP cells; format: cell-based, human; conditions: VCaP (TMPRSS2-ERG+), varying amounts of R1881, 48 hrs
Method: This Example describes the androgen regulation of Erg expression. LNCap (TMPRSS2-ERG-) and VCaP (TMPRSS2-ERG+) cell lines were used. The cells were contacted with varying amounts of R1881 for 48 hrs. Expression of Erg, PSA (+control) and beta-tubulin (−control) were assayed.

[5] = system: LNCaP prostate cancer cell line; test: Androgen stimulation of LNCaP cells, qPCR of endogenous 5′ fusion partner genes; format: cell-based, human; conditions: 1 nM R1881, 24 h
Method: For androgen stimulation experiments, LNCaP cells were grown in charcoal-stripped serum containing media for 24 hours before treatment for 24 hours with 1% ethanol or 1 nM of methyltrienolone (R1881, NEN Life Science Products, Boston, Mass.) dissolved in ethanol.
Quantitative PCR (QPCR) was performed using Power SYBR Green Mastermix (Applied Biosystems, Foster City, Calif.) on an Applied Biosystems 7300 Real Time PCR system as described (Tomlins et al., Cancer Res 66, 3396-400 (2006); Tomlins et al., Recurrent fusion of TMPRSS2 and ETS transcription factor genes in prostate cancer. Science 310, 644-8 (2005)). HMBS and GAPDH5, and PSA6 primers were as described. Androgen stimulation reactions were performed in quadruplicate, all other reactions were performed in duplicate.

[6] = biological target: androgen receptor (AR) (Homo sapiens, UniProt P10275, T878A); conditions: LNCaP
Chain of androgen receptor (AR) (P10275 whole entry T878A): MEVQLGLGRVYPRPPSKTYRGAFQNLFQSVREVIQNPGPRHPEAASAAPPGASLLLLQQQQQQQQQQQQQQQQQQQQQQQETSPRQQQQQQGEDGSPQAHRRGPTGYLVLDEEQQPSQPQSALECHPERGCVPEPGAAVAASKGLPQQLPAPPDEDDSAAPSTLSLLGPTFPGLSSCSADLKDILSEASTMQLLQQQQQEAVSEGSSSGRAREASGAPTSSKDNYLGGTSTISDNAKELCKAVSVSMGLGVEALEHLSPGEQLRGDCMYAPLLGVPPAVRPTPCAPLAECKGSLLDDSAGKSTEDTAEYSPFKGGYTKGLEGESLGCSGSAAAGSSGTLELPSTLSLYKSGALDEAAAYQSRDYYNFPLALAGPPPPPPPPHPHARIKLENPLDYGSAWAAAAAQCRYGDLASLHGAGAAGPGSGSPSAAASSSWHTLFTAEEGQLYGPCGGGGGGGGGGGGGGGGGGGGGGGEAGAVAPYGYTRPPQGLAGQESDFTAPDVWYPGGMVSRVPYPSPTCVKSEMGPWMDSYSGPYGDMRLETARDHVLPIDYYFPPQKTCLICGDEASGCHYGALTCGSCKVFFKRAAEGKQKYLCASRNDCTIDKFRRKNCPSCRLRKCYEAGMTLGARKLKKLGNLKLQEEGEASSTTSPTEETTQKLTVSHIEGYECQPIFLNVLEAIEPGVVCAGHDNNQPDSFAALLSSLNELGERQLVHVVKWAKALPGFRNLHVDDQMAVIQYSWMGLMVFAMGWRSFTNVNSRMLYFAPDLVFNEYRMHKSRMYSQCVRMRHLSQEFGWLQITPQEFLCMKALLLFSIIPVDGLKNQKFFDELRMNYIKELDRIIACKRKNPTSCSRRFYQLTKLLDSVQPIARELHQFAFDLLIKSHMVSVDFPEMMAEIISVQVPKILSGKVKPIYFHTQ
Method: LNCaP, an androgen sensitive prostate cancer cell line, was maintained in RPMI with 10% FBS. For androgen stimulation experiments, cells were placed for two days in phenol red-free RPMI, supplemented with 5% of charcoal-treated FCS before being treated with 1% ethanol or 10 nM R1881 for the following time points 0, 3, 12, 24, and 48 hours. Cells were treated for 16 hours with androgen and crosslinked for chromatin immunoprecipitation (ChIP) analysis.
The input whole-cell extract DNA and the ChIP-enriched DNA were amplified by ligation-mediated PCR, and subjected to qPCR assessment of target promoters. ChIP enrichment was evaluated as a percentage of input DNA.

C[C@]1(O)CC[C@H]2[C@@H]3CCC4=CC(=O)CCC4=C3C=C[C@@]21C [R1881, methyltrienolone]
expression of DDX5 on R1881 stimulation ([1]; 10 nM R1881, Q-PCR): not affected | induction of expression of endogenous CANT1 ([1]; 10 nM R1881, at 24 hours, Q-PCR, P=0.0014): 3.8 fold | induction of expression of endogenous FL35294 ([1]; 10 nM R1881, at 48 hours, Q-PCR, P=0.0006): 11.6 fold | ETV1 expression by QPCR ([2]; LNCaP cells, 1 nM R1881, 48 hours): induction | ETV1 expression ([2]; androgen-responsive VCaP cell line): does not induce | PSA expression by QPCR (normalized to GAPDH) ([2]; both VCaP and LNCaP cells, 1 nM R1881, 48 hours): induction | increase in expression of ERG compared to untreated controls ([3]; DuCaP cells): 2.57 fold | expression of ERG after R1881 treatment compared to untreated controls ([3]; LnCaP cells): 0.86 fold | expression of ERG after R1881 treatment compared to untreated controls ([3]; PC3 cells expressing the androgen receptor): 0.73 fold | expression of ERG after R1881 treatment compared to untreated controls ([3]; PC3 cells): 1.28 fold | expression of ERG after R1881 treatment compared to untreated controls ([3]; RWPE cells): 1.37 fold | increase in expression of ERG compared to untreated controls ([3]; VCaP cells): 5.02 fold | ERG expression, androgen dependence [4]: androgen dependent | decrease in expression of C15ORF21 ([5]; P=0.0012): 1.9 fold | change in expression of HNRPA2B1 (not significantly changed) ([5]; P=0.29): 1.17 fold | increase in endogenous expression of HERV-K_22q11.23 ([5]; P=2.4E-4): 7.8 fold | increase in endogenous expression of SLC45A3 ([5]; P=6.5E-4): 21.6 fold | increase in endogenous expression of TMPRSS2 ([5]; P=9.95E-7): 14.8 fold | AR recruitment to the promoter region of DDX5 (ChIP) ([6]; 16 hours after R1881): not recruited | AR occupancy of the promoter region of CANT1 (ChIP enrichment) ([6]; 16 hours after R1881, P=0.0014): 40 fold | AR occupancy of the promoter region of FL35294 (ChIP enrichment) ([6]; 16 hours after R1881, P=0.005): 9 fold
